Reference: publication PMC9530963, “A cathelicidin antimicrobial peptide from Hydrophis cyanocinctus inhibits Zika virus infection by downregulating expression of a viral entry factor” (The Journal of Biological Chemistry, 2022)

Assays:
[1] = test system: ZIKV; test: Susceptibility of Vero cells to ZIKV (peptide pretreatment of cells); assay type: cell-based, ZIKV strain PRVABC59; settings: 2.5 μM, Vero cells incubated 2 h with peptide before ZIKV (MOI = 1), 48 h
Method: Figure 2 Hc-CATH decreases the susceptibility of Vero cells to ZIKV.A, schematic diagram of B–G (Hc-CATH-Vero-pre). B–G, pretreatment with Hc-CATH before ZIKV infection decreases the susceptibility of Vero cells to ZIKV. Vero cells were seeded in 24-well plates (5 × 10^4 cells/well) and cultured in DMEM containing 2% FBS. Hc-CATH (2.5 μM), AC5 (2.5 μM), LL-37 (2.5 μM), or same volume of PBS (peptide solvent) was added to cells and incubated at 37 °C for 2 h. Vero cells were washed three times with PBS, and ZIKV (MOI = 1) was added to cells. After incubation at 37 °C for 2 h, Vero cells were washed with PBS and transferred with fresh DMEM containing 2% FBS. After culture for 48 h, intracellular ZIKV RNA (B), NS3 protein (C and D, C: immunoblots, D: ratio analyzed by ImageJ), E protein (E, the scale bar represents 50 μm), and extracellular ZIKV titer (F and G) was tested by qPCR, Western blot, immunofluorescence staining, and plaque-forming assay, respectively.
Vero, A549, or U251 cells were incubated with peptide or PBS at 37 °C for 2 h. The cells were washed three times with PBS and incubated with ZIKV (MOI = 1) at 37 °C for 2 h. The culture media were replaced with fresh DMEM containing 2% FBS. After incubation at 37 °C for 48 h, intracellular ZIKV RNA, NS3 protein, E protein, and extracellular ZIKV titer were detected by qPCR, WB, IF, and plaque-forming assay, respectively ([28]).

[2] = test system: COX-2; test: COX-2 protein level in A549 cells (Western blot); assay type: cell-based, Homo sapiens; settings: A549 cells, 1.25, 2.5, or 5 μM, 24 h
Method: Figure 6 Hc-CATH downregulates AXL via inhibiting COX-2/PGE2/AC/PKA pathway.A, effect of Hc-CATH on COX-2 protein level. A549 cells were incubated with Hc-CATH (1.25, 2.5, or 5 μM) or PBS (solvent of Hc-CATH) at 37 °C for 24 h, COX-2 protein level was examined by Western blot (upper panel) and analyzed by ImageJ (lower panel). B, effect of Hc-CATH on the enzymatic activity of COX-2. Hc-CATH (1.25, 2.5, 5, and 10 μM) or PBS was incubated with COX-2. After incubation at 37 °C for 10 min, the enzymatic activity of COX-2 was detected by enzyme activity inhibitor screening kit. Celecoxib (COX-2 inhibitor, 100 nM) was used as positive control. C, effect of Hc-CATH on PGE2 production. A549 cells were incubated with Hc-CATH (5 μM) at 37 °C. After incubation for 24 h, the level of PGE2 in the cell supernatant was detected by ELISA. D and E, effect of AC (D) and PKA (E) on Hc-CATH-induced AXL downregulation. A549 cells were incubated with forskolin (FSK, agonist of AC, 10 μM) or H89 (inhibitor of PKA, 5 μM) at 37 °C. After incubation for 1 h, the culture media were removed, cells were washed three times with PBS, and fresh culture media were added to cells in the presence of Hc-CATH (5 μM). After incubation for 24 h, AXL protein level was examined by Western blot (upper panel of D and E) and analyzed by ImageJ (lower panel of D and E). ns, not significant, ∗∗p < 0.01, and ∗∗∗p < 0.001. […]

[3] = test system: ZIKV; test: Leakage of ZIKV genomic RNA (micrococcal nuclease digestion); set-up: species or system ZIKV strain PRVABC59; settings: 1, 20, and 40 μM, 37 °C 2 h; micrococcal nuclease 37 °C 4 h; qPCR of PrM, E, Cap
Method: Figure 8 Hc-CATH directly inactivates ZIKV particles by disrupting viral membrane.A, schematic diagram of B–G (Hc-CATH-Vero-pre). B–G, direct inactivation of ZIKV by Hc-CATH. ZIKVs (MOI = 1) were incubated with Hc-CATH (2.5 μM), AC5 (2.5 μM), LL-37 (2.5 μM), or PBS (peptide solvent) at 37 °C for 2 h, and then the ZIKV–PBS mixture and ZIKV–peptide mixture were centrifugated at 100,000g for 70 min. The pellets were washed with PBS and centrifugated at 100,000g for 70 min again. The pellets were resuspended in PBS, added to Vero cells, and incubated for 2 h. Cells were washed with PBS and cultured in fresh DMEM containing 2% FBS. […] Absorbance at 450 nm was measured after reactions were stopped using 0.5 M sulfuric acid. […] After the residual RNase was inactivated, the undigested genomic RNA in the intact ZIKV particles was extracted and quantified by testing the genes of PrM, E, and Cap proteins, respectively. ∗∗p < 0.01 and ∗∗∗p < 0.001.
For assay of the disruption of viral membrane by Hc-CATH, ZIKV (about 10^5 PFU) was incubated with Hc-CATH (1, 20, and 40 μM), PBS, or 1% Triton X-100 (positive control) at 37 °C for 2 h. […] The residual RNase was inactivated, the undigested genomic RNA in the intact ZIKV particles was extracted and quantified by testing viral genes encoding membrane protein (PrM), E protein, and capsid (Cap) protein, respectively ([43]).

[4] = test system: ZIKV; test: Prophylactic efficacy against ZIKV infection in mice; assay type: in vivo
Description: At 4, 8, and 3 days post ZIKV inoculation, C57BL/6J mice, Ifnar1^−/− mice, and pregnant C57BL/6J mice were sacrificed, respectively. Tissues and fetal mice were collected for testing ZIKV RNA by qPCR. ns, not significant, ∗p < 0.05, ∗∗p < 0.01, and ∗∗∗p < 0.001. Hc-CATH, a cathelicidin antimicrobial peptide identified from the sea snake Hydrophis cyanocinctus; PFU, plaque-forming unit; qPCR, quantitative PCR; ZIKV, Zika virus.
C57BL/6J mice, Ifnar1^−/− mice, and pregnant C57BL/6J mice were sacrificed at 4, 8, and 3 days post ZIKV inoculation, respectively. Tissues and fetal mice were collected for testing ZIKV RNA level by qPCR.

KFFKRLLKSVRRAVKKFRKKPRLIGLSTLL [Hc-CATH, cathelicidin antimicrobial peptide identified from the sea snake Hydrophis cyanocinctus]
reduction of ZIKV NS3 protein, cells pre-incubated with peptide ([1]; Western blot): ~50.1%
reduction of ZIKV particles, cells pre-incubated with peptide ([1]; plaque-forming assay): ~62.2%
reduction of ZIKV RNA, cells pre-incubated with peptide ([1]; qPCR): about 46.1%
expression of COX-2 [2]: did not influence the expression of COX-2
genomic RNA of peptide-treated virions (leakage) [3]: digested by micrococcal nuclease
anti-ZIKV efficacy in vivo compared with positive peptides ([4]; C57BL/6J mice, prophylactic and therapeutic (Figs. 11E and 12E)): comparable with or even better than that of AC5 and LL-37
ZIKV replication in C57BL/6J mice, prophylactic ([4]; i.v. peptide 2 h before i.v. ZIKV 10^6 PFU/mouse, 4 days, tissue ZIKV RNA, qPCR): significantly decreased ZIKV replication
ZIKV replication in Ifnar1−/− mice, prophylactic ([4]; i.v. peptide 2 h before i.v. ZIKV 10^6 PFU/mouse, 8 days, tissue ZIKV RNA, qPCR): significantly decreased ZIKV replication
ZIKV replication in fetal placenta and fetal mice, prophylactic ([4]; pregnant C57BL/6J mice, i.v. peptide 2 h before i.v. ZIKV 10^6 PFU/mouse, 3 days, qPCR): significantly decreased ZIKV replication
